SMILES strings stand for the structures. Several values for one entry are separate records, joined by “and”; a condition that tells them apart may be missing. Identical values can stand only once. Entries after “also recorded” stand apart in the source; their conditions may differ.

Test [1] relates to FLS from a C57BL/6 mouse with KRN serum-induced arthritis. Briefly: Matrigel transwell invasion assay, mouse FLS. It counts as cell-based. The conditions noted are these: 10 μM, one cell line in triplicate. The procedure: The in vitro invasiveness of FLS was assayed in a transwell system using Matrigel-coated inserts (BD Biosciences, Franklin Lakes, N.J.), as previously described (Tolboom et al., “Invasiveness of Fibroblast-Like Synoviocytes is an Individual Patient Characteristic Associated with the Rate of Joint Destruction in Patients with Rheumatoid Arthritis,” Arthritis Rheum. 52 (7):1999-2002 (2005); Laragione et al., “The Arthritis Severity Locus Cia5d is a Novel Genetic Regulator of the Invasive Properties of Synovial Fibroblasts,” Arthritis Rheum. 58 (8):2296-2306 (2008), which are hereby incorporated by reference in their entirety). Briefly, 70-80% confluent cells were harvested by trypsin-EDTA digestion, and re-suspended at 2.0×10^4 cells in 500 μl of serum-free DMEM. Cells were placed in the upper compartment of the Matrigel-coated inserts. Where indicated, O1821, LER13, or vehicle was added to the upper chamber. The lower compartment was filled with complete media and the plates were incubated at 37° C. for 24 hours. After 24 hours the upper surface of the insert was wiped with cotton-swabs to remove non-invading cells and the Matrigel layer. The opposite side of the insert was stained with Crystal Violet (Sigma) and the total number of cells that invaded through Matrigel counted at 100× magnification. […]

Test [2] deals with FLS from DA rats with PIA. As to the kind of experiment: Matrigel transwell invasion assay, FLS from DA rats with PIA (incl. siRNA knock-down). It counts as cell-based, rat. Conditions: for Reduction of FLS invasion: DA cells, overnight. The procedure:
(§1) The in vitro invasiveness of FLS was assayed in a transwell system using Matrigel-coated inserts (BD Biosciences, Franklin Lakes, N.J.), as previously described (Tolboom et al., “Invasiveness of Fibroblast-Like Synoviocytes is an Individual Patient Characteristic Associated with the Rate of Joint Destruction in Patients with Rheumatoid Arthritis,” Arthritis Rheum. 52 (7):1999-2002 (2005); Laragione et al., “The Arthritis Severity Locus Cia5d is a Novel Genetic Regulator of the Invasive Properties of Synovial Fibroblasts,” Arthritis Rheum. 58 (8):2296-2306 (2008), which are hereby incorporated by reference in their entirety). Briefly, 70-80% confluent cells were harvested by trypsin-EDTA digestion, and re-suspended at 2.0×10^4 cells in 500 μl of serum-free DMEM. Cells were placed in the upper compartment of the Matrigel-coated inserts. Where indicated, O1821, LER13, or vehicle was added to the upper chamber. The lower compartment was filled with complete media and the plates were incubated at 37° C. for 24 hours. After 24 hours the upper surface of the insert was wiped with cotton-swabs to remove non-invading cells and the Matrigel layer. The opposite side of the insert was stained with Crystal Violet (Sigma) and the total number of cells that invaded through Matrigel counted at 100× magnification. Experiments were done in duplicate.
Dharmacon SMARTpool siRNA targeting Trpv2, Gapdh, or a non-coding control were purchased from Thermo Scientific (Lafayette, Colo.) and transfected into DA FLS according to the manufacturer's instructions. Cells were then incubated at 37° C. for 72 hours prior to initiating the invasion assays. Knock-down was confirmed with qPCR and Western blot.

The target of a further test is T1, Trpv2 (Rattus norvegicus, UniProt Q9WUD2).
T1 sequence (Q9WUD2 1-761): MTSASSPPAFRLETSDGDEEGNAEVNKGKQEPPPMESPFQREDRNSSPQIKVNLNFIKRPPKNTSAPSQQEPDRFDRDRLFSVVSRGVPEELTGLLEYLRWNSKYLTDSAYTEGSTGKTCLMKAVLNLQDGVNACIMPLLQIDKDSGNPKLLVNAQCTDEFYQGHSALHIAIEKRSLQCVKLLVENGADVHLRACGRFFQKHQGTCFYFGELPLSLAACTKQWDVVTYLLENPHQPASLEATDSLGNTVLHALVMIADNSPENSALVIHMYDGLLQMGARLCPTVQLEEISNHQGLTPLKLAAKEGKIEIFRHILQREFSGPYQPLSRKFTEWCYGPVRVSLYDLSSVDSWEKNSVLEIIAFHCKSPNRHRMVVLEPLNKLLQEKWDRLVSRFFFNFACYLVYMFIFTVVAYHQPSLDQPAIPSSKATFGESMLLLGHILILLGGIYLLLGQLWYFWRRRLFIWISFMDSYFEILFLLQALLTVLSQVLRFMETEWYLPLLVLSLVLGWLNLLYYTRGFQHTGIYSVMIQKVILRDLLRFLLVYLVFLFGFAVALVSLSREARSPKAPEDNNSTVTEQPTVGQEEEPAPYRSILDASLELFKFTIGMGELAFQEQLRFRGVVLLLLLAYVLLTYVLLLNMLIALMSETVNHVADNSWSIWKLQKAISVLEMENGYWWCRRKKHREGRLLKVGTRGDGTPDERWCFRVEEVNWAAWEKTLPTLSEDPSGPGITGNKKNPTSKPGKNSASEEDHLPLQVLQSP
Briefly: Intracellular calcium influx (Fluo-4 NW) in DA FLS. It counts as cell-based. The arrangement: endogenous in cells; host or cells: fibroblast-like synoviocytes (FLS) from DA rats. The conditions noted are these: for Intracellular calcium influx vs untreated and vehicle: increasing concentrations, two DA FLS cell lines. As to the method:
Intracellular calcium influx was measured using the Fluo-4 NW calcium assay kit (Molecular Probes/Invitrogen) according to the manufacturer's instructions, as previously described (Laragione et al., “CXCL10 and its Receptor CXCR3 Regulate Synovial Fibroblast Invasion in Rheumatoid Arthritis,” Arthritis Rheum. 63 (11):3274-3283 (2011), which is hereby incorporated by reference in its entirety). Briefly, DA FLS were plated at a density of 4,500 cells/well in a 96-well plate (100 μl volume of complete media per well). After cell adhesion the media was changed to serum-free media for overnight culture. Serum-free media was then replaced with 50 μl of dye loading solution, followed by incubation at 37° C. for 30 minutes and a baseline fluorimetric reading. Then, O1821, LER13, or vehicle were added to their respective wells at different concentrations and fluorescence read immediately in a Fluoroskan Ascent Microplate Fluorometer (Thermo Scientific) with settings appropriate for excitation at 494 nm and emission at 516 nm.

In a further test the test system is FLS. As to the kind of experiment: FLS invasion, focused library screen (Table 1). In kind it is cell-based. The conditions noted are these: evaluated over 24 hours in vitro. As to the method:
as §1

The next test deals with phosphorylated Erk1/2. Briefly: FLS levels of phosphorylated Erk1/2. It counts as cell-based.

As for `C#Cc1cc(O)c(C2C=C(C)CCC2C(=C)C)c(O)c1C1C=C(C)CCC1C(=C)C` [Compound 13, (1R,2″R,2R,2″S)-6′-ethynyl-5,5″-dimethyl-2,2″-di(prop-1-en-2-yl)-1,1″,2,2″,3,3″,4,4″-octahydro-[1,1′:3′,1″-terphenyl]-2′,4′-diol], in test [1] (listed as LER13), the “Reduction in invasion vs control vehicle” value was 65% and 75%. The “Suppression of FLS invasion” value in test [2] (10 μM, non-transfected, siRNA control and siRNA GAPDH DA FLS, listed as LER13) was 65% and 60%. Besides, in test [2] (siRNA Trpv2 transfected FLS, listed as LER13), the “Suppression of FLS invasion after Trpv2 siRNA knock-down” value is reported as “non-responsive; also recorded: not responsive or suppressed”. In addition, the “Calcium influx higher compared with O1821” value at Trpv2 (DA FLS) was about 30%. Moreover, the “Intracellular calcium influx vs untreated and vehicle” value on Trpv2 is on record as “significantly increased intracellular calcium influx”. Besides, at Trpv2 (measured over 200 seconds, compared with O1821), the Calcium influx result is recorded as “increased (30% greater than O1821)”. Besides, the “FLS invasion decreased by” value in the test on FLS was “Decreased by 64%”.
Take `C=C(C)[C@@H]1CCC(C)=C[C@H]1c1c(O)cc(C)cc1O` [Compound O1821]: the “Reduction in invasion vs control vehicle” value in test [1] worked out at 65%. The “Levels of phosphorylated Erk1/2” value with phosphorylated Erk1/2 is “did not affect”. The figures for the “Reduction of FLS invasion” value in test [2] (1 μM) and in test [2] (10 μM) were 80% and 99.4%, respectively. In addition, the “Intracellular calcium influx vs untreated and vehicle” value at Trpv2 is “significant dose-dependent increase; also recorded: significantly increased intracellular calcium influx”.
